{"source": "paper PMC10628858", "about": "“Investigation of new ferrocenyl-artesunate derivatives as antiparasitics” (Dalton Transactions (Cambridge, England : 2003), 2023)", "key": {"P. falciparum, NF54": {"test_system": "P. falciparum, NF54", "experiment": "P. falciparum growth inhibition assay (Malstat)", "format": "cell-based, Plasmodium falciparum", "settings": "72 h, maximum concentration tested 6000 nM, three independent experiments in triplicate, ± SEM, read-out: IC50 against P. falciparum, NF54", "protocol": "The antimalarial activities of C1 to C4 and F1 to F3 were determined against the wild-type drug sensitive strain of P. falciparum, NF54. […]. Further, a close link between activity and oxidation potentials of the drugs was found. The lower the oxidation potential of the ferrocene moiety, the higher the activity of the final compound, giving directions for future compound development.\nThe drugs were prepared as 10 mM stocks in sterile DMSO. The drugs were then diluted using freshly prepared growth medium to the desired testing concentrations. Chloroquine and artesunate were used as standards. A full dose–response was preformed using a 96-well plate assay and the IC50 values determined. The maximum concentration tested was 6 μM which was then serially diluted 2-fold in growth media. The plates were incubated at 37 °C for 72 h at 3% O2 and 4% CO2. After 72 h the wells were resuspended and 15 μL of the suspension was transferred to a duplicate plate containing 100 μL of Malstat reagent and 25 μL of nitroblue tetrazolium solution. The plates were allowed 20 minutes in the dark to develop and the absorbance of each well was measured using UV-Vis at 620 nm."}, "[1]": {"test_system": "T. gondii (ΔKu80::mNeonGreen)", "experiment": "T. gondii growth inhibition assay (mNeonGreen fluorescence)", "format": "cell-based, Toxoplasma gondii", "protocol": "[…]. The rate of hydrolysis of C2 and C4 is closely correlated to the activity seen against T. gondii, such that the more readily the complex separates into its constituents, parts the better the overall activity.\nTo further investigate whether the accumulation of ROS was implicated in the MoA, the growth inhibition studies were repeated in the presence of the ROS scavenger N-acetyl cysteine (NAC) (Table 5).\nGrowth inhibition assays were performed in black, clear-bottomed 96 well plates preseeded with Human foreskin fibroblasts (HFFs) as described previously.[48] ΔKu80:mNeonGreen T. gondii were counted using a hemeocytometer and media from the host-cell seeded plate was aspirated and replaced with either 200 μL of D3 or 200 μL of media + 5000 parasites per well. Infected cells were incubated for 2 hours at 37 °C with 5% CO2 to allow for invasion. Following this, the media was removed and replaced with 100 μL fresh media. 100 μL of media containing 100 μM of the indicated drug in sterile DMSO was added and serially diluted. The parasites were then incubated for four days at 37 °C with 5% CO2 then flourescense read using the PHERAstar microplate reader. After removal of background, fluorescence values were normalised to untreated and plotted. Data analysis and non-linear regression was performed in Prism."}, "T. gondii [2]": {"test_system": "T. gondii", "experiment": "Determination of intracellular ROS levels with CellROX by flow cytometry", "format": "cell-based, Toxoplasma gondii", "settings": "5 μM, 6 hours, 50 000 parasites, vs untreated", "protocol": "Since both ferrocene and artesunate are able to generate ROS, we attempted to quantify the intracellular ROS levels in the parasite using CellROX, a compound which fluoresces in the presence of ROS. Treatment with artesunate was included as positive control as previous studies have linked artesunate treatment to ROS accumulation.[44] The parasites were treated with 5 μM of complexes C1, C3 and C4, and incubated for 6 hours. […] Since T. gondii rely predominately on heme biosynthesis as opposed to incorporation of heme from host hemoglobin, the concentration of iron present in the parasite is lower.[45] But, by incorporating an iron center in the molecule the slower activation may be circumvented leading to quicker cell death and a decreased CellROX reading.\nFig. 5 CellROX fluorescence quantified by flow cytometry from 50 000 parasites. T. gondii were untreated (grey) or treated for 6 hours with 5 μM compounds (blue) or artesunate (red) as a positive control.\nIntracellular parasites were treated with 5 μM of the drug and incubated at 37 °C with 5% CO2 for either 18 hours or 6 hours. The parasites were released from host cells by scraping and syringing followed by passing through 3 μm filters to remove host-cell debris. The parasites were spun down at 6000 RPM for 10 minutes and resuspended in 500 μL PBS. 100 μL of the parasite suspension was placed in a FACS tube and a stock solution of CellROX dye in PBS (1 : 125 dilution) was added to this. This was then incubated in the dark at 37 °C for 1 hour and then read using a BD Celesta. Parasites were gated on forward and side scatter and on mNeonGreen fluorescence and histograms of Cy5 signal presented. Data analysis was performed using Flowjo."}, "PNT1A cells": {"test_system": "PNT1A cells", "experiment": "MTT cell viability assay, PNT1A", "format": "cell-based, human", "settings": "48 h", "protocol": "(§1) To assess the cytotoxicity of the four compounds a MTT cell viability assay using human embryonic kidney (HEK293) and human prostatic (PNT1A) cell lines were performed. […] The long chain compounds C1 and C3 were also shown to be non-cytotoxic towards the HEK293 cell line.\n(§2) The immortalised human prostatic epithelial cell line, PNT1A (Sigma Aldrich, 95012614) was cultured in RPMI-1640 containing 10% foetal calf serum (Life Technologies, South Africa). The human embryonic kidney cell line HEK293 (ATCC) was cultured in DMEM (Life Technologies, South Africa). Both cell lines were cultured at 37 °C under 5% CO2 with 1% penicillin and streptomycin. Cancer cell cytotoxicity was evaluated using the MTT viability assay according to our previous method.[49] Briefly, cells were seeded at a density of 3 × 10^3 cells per well in 96-well plates and allowed to settle overnight. A 100 mM stock of C1/C2 and a 50 mM stock solution of C3/C4 in DMSO was prepared from which dilutions were made. The compound was then added to the cells in triplicate to obtain the indicated concentrations and 0.1% DMSO. Controls included cells treated with […] DMSO alone. After 48 h, 10 μL of 5 mg mL^−1 MTT (3-(4,5-dimethylthiazol-2-yl)-2,5-diphenyltetrazolium bromide) (Sigma-Aldrich) was added, and incubated with the cells for 4 h, followed by addition of 100 μL 10% SLS, 0.01 M HCL. The plates were read at 595 nm on a Multiscan FC plate reader (Thermo Scientific) and the data was fitted to a variable slope dose–response curve using Graphpad prism v6 to obtain the cytotoxicity IC50. The assay was repeated independently three times where inhibition was observed."}, "HEK293 cells": {"test_system": "HEK293 cells", "experiment": "MTT cell viability assay, HEK293", "format": "cell-based, human", "settings": "48 h", "protocol": "as §1, §2"}, "[3]": {"experiment": "Kinetic aqueous solubility, turbidimetric assay", "format": "physicochemical", "settings": "for solubility at 4 h: aqueous buffer, kinetic from dmso stock, absorbance 620 nm", "protocol": "The kinetic solubility of the complexes was determined by means of a turbidimetric assay. The complexes were first dissolved in dimethyl sulfoxide (DMSO) which was then serially diluted in either phosphate buffered saline (PBS) or 4-(2-hydroxyethyl)-1-piperazineethanesulfonic acid (HEPES). The extent of precipitation was then measured using the absorbance at 620 nm.\nPBS was prepared by dissolving one PBS tablet in 200 mL of distilled water at 25 °C yielding a buffered solution containing 10 mM phosphate buffer, 3.0 mM KCl and 140 mM NaCl. The pH was then confirmed to be at 7.4 with a pH meter. A 0.025 M HEPES buffer was prepared by dissolving HEPES free acid 5.00 mmol in distilled water (±180 mL) and titrating the solution with 0.100 M NaOH until a pH 7 was reached, the volume was then made up to 200 mL using distilled water. A 10.0 mM stock of each drug was prepared in DMSO. […] 4 μL of the drugs was then pipetted into a 96-well plate loaded with 196 μL of either the desired buffer solution or DMSO. The test plates were then incubated at 37 °C for 4 hours following which the UV-Vis absorbance was measured at 620 nm and the absorbances corrected by subtracting the blank."}, "[4]": {"experiment": "Aqueous stability (hydrolysis) by UV-Vis kinetic scan in 10% MeOH (aq)", "format": "physicochemical", "settings": "change in absorbance at 254 nm over one hour, ExpDec1 fit", "protocol": "Since biological systems are comprised of water, the behavior and stability of a drug in aqueous media is important. To determine the stability, each complex was dissolved in MeOH and then diluted to 10% MeOH (aq). The solutions were then monitored by UV-Vis spectroscopy using a kinetic scan in the range 190–1100 nm over 1 hour. […] Hydrolysis was also supported by RP-HPLC in which new peaks emerged corresponding to the starting ferrocene precursors, F2 and F4. […] […] The major difference being between C1/C2 and C3/C4 is the nature of the linkage either being an ester or an amide bond. It is expected that the hydrolysis of C2 would occur quicker due to the more labile nature of the ester bond.\nUV-Vis studies were performed by dissolving each complex in methanol to a concentration of 1 mM. This was then diluted using distilled water in a 10% methanol/water mixture giving a final concentration of 100 μM. The complexes were then monitored using a kinetic scan between the range 190–1100 nm scanning each minute over the course of one hour. […]"}, "[5]": {"experiment": "Cyclic voltammetry (oxidation/reduction potentials)", "format": "physicochemical", "settings": "Ag/AgCl electrode, scan rate 100 mV s^−1, 0.100 M [NBu4][PF6] in MeCN"}, "T. gondii [6]": {"test_system": "T. gondii", "set-up": "method as in PMID 32968076", "settings": "read-out: IC50 against T. gondii; cited from earlier work"}, "[7]": {"test_system": "clinically resistance (CQ-R) isolates of P. falciparum", "set-up": "method as in PMID 21894260", "settings": "cited from earlier work"}}, "note": "Where “and” joins values, the source holds several entries; their conditions need not be identical. Equal entries are not always repeated. Where two headings read alike, the source gives them in different places.", "data": [{"compound": "C[C@H]1[C@H](OC(=O)CCC(=O)O)O[C@@H]2O[C@@]3(C)CC[C@H]4[C@H](C)CC[C@@H]1[C@@]24OO3", "note": "[Artesunate, artesunate]", "values": [{"measurement": "IC50", "setting": "P. falciparum, NF54; Plasmodium falciparum, NF54", "result": "3 ± 1", "unit": "nM"}, {"measurement": "IC50", "setting": "[1]; Toxoplasma gondii, 96 h, read-out: IC50 against T. gondii", "result": "200 ± 6", "unit": "nM"}, {"measurement": "IC50", "setting": "[1]; Toxoplasma gondii, read-out: IC50 + NAC against T. gondii", "result": "310 ± 28", "unit": "nM"}, {"measurement": "Change in CellROX signal (intracellular ROS)", "setting": "T. gondii [2]", "result": "increase"}]}, {"compound": "CC1CCC2C(C)C(OC(=O)CCC(=O)OC[c-]3cccc3)OC3OC4(C)CCC1C32OO4.[Fe+2].c1cc[cH-]c1", "note": "(centres unmarked) [Compound C2]", "values": [{"measurement": "IC50", "setting": "PNT1A cells", "result": "> 100000", "unit": "nM"}, {"measurement": "IC50", "setting": "P. falciparum, NF54", "result": "19 ± 4", "unit": "nM"}, {"measurement": "IC50", "setting": "HEK293 cells", "result": "53000 ± 5700", "unit": "nM"}, {"measurement": "IC50", "setting": "[1]; four days, in HFF host cells, three independent experiments in triplicate, ± SEM, read-out: IC50 against T. gondii", "result": "280 ± 22", "unit": "nM"}, {"measurement": "Solubility range", "setting": "[3]; turbidimetric assay, buffer not named", "result": "23 to 47", "unit": "µg/mL"}, {"measurement": "Half-life", "setting": "[4]", "result": "3.0 ± 0.16", "unit": "min"}, {"measurement": "Rate constant (hydrolysis)", "setting": "[4]", "result": "0.23 ± 0.013", "unit": "min⁻¹"}, {"measurement": "E 1/2", "setting": "[5]", "result": 0.503, "unit": "V"}, {"measurement": "E Ox", "setting": "[5]", "result": 0.561, "unit": "V"}, {"measurement": "E Red", "setting": "[5]", "result": 0.445, "unit": "V"}, {"measurement": "ΔE", "setting": "[5]", "result": 0.116, "unit": "V"}]}, {"compound": "O=C(NCCO)[c-]1cccc1.[Fe+2].c1cc[cH-]c1", "note": "[Compound F1, N-(Hydroxyethyl)ferrocenamide]", "values": [{"measurement": "IC50", "setting": "P. falciparum, NF54", "result": "> 6000", "unit": "nM"}]}, {"compound": "OC[c-]1cccc1.[Fe+2].c1cc[cH-]c1", "note": "[Compound F2, ferrocene methanol]", "values": [{"measurement": "IC50", "setting": "P. falciparum, NF54", "result": "3400 ± 96", "unit": "nM"}]}, {"compound": "NCCNC(=O)[c-]1cccc1.[Fe+2].c1cc[cH-]c1", "note": "[Compound F3, N-(2-aminoethyl)ferrocenamide]", "values": [{"measurement": "IC50", "setting": "P. falciparum, NF54", "result": "> 6000", "unit": "nM"}]}, {"compound": "C[C@H]1[C@@H](O)O[C@@H]2O[C@@]3(C)CC[C@H]4[C@H](C)CC[C@@H]1[C@@]24OO3", "note": "[DHA, dihydroartemisinin]", "values": [{"measurement": "IC50", "setting": "T. gondii [6]", "result": "~66", "unit": "nM"}]}, {"compound": "[Fe+2].c1cc[cH-]c1.c1cc[cH-]c1", "note": "[Ferrocene, reference compound]", "values": [{"measurement": "E 1/2", "setting": "[5]", "result": 0.446, "unit": "V"}, {"measurement": "E Ox", "setting": "[5]", "result": 0.499, "unit": "V"}, {"measurement": "E Red", "setting": "[5]", "result": 0.393, "unit": "V"}, {"measurement": "ΔE", "setting": "[5]", "result": 0.106, "unit": "V"}]}, {"compound": "CN(C)Cc1ccc[c-]1CNc1ccnc2cc(Cl)ccc12.[Fe+2].c1cc[cH-]c1", "note": "(centres unmarked) [Ferroquine, ferroquine]", "values": [{"measurement": "Activity against CQ-R isolates of P. falciparum", "setting": "[7]", "result": "less than 30 nM"}]}, {"compound": "COC(=O)[C@H]1[C@H]2C[C@@H]3c4[nH]c5cc(OC)ccc5c4CCN3C[C@H]2C[C@@H](OC(=O)c2cc(OC)c(OC)c(OC)c2)[C@@H]1OC", "note": "[Reserpine, reference compound]", "values": [{"measurement": "solubility at 4 h", "setting": "[3]; HEPES buffer with 2% DMSO, HEPES pH 7, 37 °C, read-out: Aqueous solubility range, HEPES", "result": "40 µM to 80 µM and 24 µg/mL to 50 µg/mL"}, {"measurement": "solubility at 4 h", "setting": "[3]; phosphate buffered saline (PBS) with 2% DMSO, PBS pH 7.4, 37 °C, read-out: Aqueous solubility range, PBS", "result": "20 µM to 40 µM and 12 µg/mL to 24 µg/mL"}]}]}
